Target: bovine cardiac myosin (Bos taurus, UniProt Q9BE39)
Assay: Myosin activation assay (PK/LDH-coupled ATPase, bovine cardiac myofibrils)
Type: biochemical
Settings: AC20 = concentration at which total response is increased by twenty percent
Outline: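 Values are the concentrations raising the ATPase rate by 20% or 50% over DMSO, from 10-point dose responses fitted with four parameters. Rate is NADH loss at 340 nm via PK/LDH coupling, read 15 min at room temperature, in pH 6.8 PIPES with 50 μM ATP. Bovine cardiac myofibrils were held at pCa ~6 or pCa 10.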

Chain of bovine cardiac myosin (Q9BE39 whole entry): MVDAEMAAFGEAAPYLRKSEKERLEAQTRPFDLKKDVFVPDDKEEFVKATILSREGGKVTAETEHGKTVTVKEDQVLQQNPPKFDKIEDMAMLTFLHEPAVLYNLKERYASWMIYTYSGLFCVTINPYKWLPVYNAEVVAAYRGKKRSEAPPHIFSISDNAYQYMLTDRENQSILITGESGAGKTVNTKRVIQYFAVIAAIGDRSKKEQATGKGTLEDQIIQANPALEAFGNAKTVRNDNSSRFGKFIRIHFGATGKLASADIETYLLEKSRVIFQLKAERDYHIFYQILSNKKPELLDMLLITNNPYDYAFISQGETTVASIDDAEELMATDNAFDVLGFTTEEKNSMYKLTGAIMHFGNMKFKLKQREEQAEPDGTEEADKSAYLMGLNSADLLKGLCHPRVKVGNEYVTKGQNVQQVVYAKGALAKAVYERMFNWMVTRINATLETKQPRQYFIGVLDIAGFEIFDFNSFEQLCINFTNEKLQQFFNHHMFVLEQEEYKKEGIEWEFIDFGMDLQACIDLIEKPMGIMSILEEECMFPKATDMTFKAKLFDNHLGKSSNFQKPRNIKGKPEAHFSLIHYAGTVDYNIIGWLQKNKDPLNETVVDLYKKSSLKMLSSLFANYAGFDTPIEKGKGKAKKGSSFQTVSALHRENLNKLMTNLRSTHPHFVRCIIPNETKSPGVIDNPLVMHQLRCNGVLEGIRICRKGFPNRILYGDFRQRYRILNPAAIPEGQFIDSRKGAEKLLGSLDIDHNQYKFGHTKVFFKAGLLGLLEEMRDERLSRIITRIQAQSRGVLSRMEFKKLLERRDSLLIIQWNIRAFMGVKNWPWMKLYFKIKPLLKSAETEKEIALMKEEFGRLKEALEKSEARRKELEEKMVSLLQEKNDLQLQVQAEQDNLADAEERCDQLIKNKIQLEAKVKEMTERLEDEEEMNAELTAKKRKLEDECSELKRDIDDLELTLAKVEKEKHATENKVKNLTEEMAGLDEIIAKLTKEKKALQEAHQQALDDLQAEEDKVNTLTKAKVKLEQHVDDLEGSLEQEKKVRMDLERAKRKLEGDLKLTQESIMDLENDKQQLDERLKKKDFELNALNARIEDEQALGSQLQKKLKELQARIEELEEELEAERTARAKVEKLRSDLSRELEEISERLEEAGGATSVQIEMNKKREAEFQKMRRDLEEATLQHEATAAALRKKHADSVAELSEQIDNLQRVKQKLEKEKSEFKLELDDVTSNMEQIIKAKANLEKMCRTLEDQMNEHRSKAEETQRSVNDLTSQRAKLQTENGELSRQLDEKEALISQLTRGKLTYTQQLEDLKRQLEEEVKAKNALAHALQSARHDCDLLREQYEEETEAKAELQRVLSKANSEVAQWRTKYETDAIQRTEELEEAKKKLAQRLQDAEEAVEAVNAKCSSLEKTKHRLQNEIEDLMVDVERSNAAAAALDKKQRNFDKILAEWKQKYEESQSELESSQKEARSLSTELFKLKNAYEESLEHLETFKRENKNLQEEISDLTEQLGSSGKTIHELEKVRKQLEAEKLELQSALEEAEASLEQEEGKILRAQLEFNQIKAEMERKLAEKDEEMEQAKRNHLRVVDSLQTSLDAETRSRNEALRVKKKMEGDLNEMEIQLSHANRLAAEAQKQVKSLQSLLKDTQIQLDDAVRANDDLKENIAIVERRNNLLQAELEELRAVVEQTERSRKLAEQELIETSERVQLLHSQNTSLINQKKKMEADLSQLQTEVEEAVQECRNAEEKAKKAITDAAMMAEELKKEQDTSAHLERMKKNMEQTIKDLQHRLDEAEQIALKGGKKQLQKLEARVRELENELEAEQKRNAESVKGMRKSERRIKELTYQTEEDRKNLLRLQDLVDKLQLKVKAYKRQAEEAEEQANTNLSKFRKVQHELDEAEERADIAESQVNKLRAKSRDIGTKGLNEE
Chain of bovine cardiac myosin (P85100 whole entry partner): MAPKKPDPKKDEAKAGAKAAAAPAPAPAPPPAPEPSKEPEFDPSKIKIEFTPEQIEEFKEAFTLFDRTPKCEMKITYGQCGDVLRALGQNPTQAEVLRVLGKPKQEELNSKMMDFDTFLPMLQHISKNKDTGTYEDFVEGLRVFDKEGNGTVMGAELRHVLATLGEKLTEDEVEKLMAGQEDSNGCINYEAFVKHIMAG
Chain of bovine cardiac myosin (Q3SZE5 whole entry partner): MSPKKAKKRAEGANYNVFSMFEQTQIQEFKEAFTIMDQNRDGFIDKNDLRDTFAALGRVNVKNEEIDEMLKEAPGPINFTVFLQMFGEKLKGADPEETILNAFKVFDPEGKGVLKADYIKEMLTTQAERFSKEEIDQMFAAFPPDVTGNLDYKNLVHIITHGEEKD

**Q.** With `Cn1nc(Cl)cc1S(=O)(=O)C(C)(C)C1CCN(C(=O)Nc2ccnc(F)c2)CC1` [Compound 115, 4-(2-((3-chloro-1-methyl-1H-pyrazol-5-yl)sulfonyl)propan-2-yl)-N-(2-fluoropyridin-4-yl)piperidine-1-carboxamide] as the compound, how does the “Myosin Activation (AC20)” value read?
**A.** ++ (++ represents myosin activation value AC20 from 2 μM-5 μM)

**Q.** `Cn1cc(S(=O)(=O)C(C)(C)C2CCN(C(=O)Nc3ccc(F)nc3)CC2)c(C(F)F)n1` [Compound 117, 4-(2-((3-(difluoromethyl)-1-methyl-1H-pyrazol-4-yl)sulfonyl)propan-2-yl)-N-(6-fluoropyridin-3-yl)piperidine-1-carboxamide] was tested. Which “Myosin Activation (AC20)” value did it give?
**A.** ++ (++ represents myosin activation value AC20 from 2 μM-5 μM)

**Q.** `Cn1cc(S(=O)(=O)C(C)(C)C2CCN(C(=O)Nc3cccnc3)CC2)c(C(F)F)n1` [Compound 118, 4-(2-((3-(difluoromethyl)-1-methyl-1H-pyrazol-4-yl)sulfonyl)propan-2-yl)-N-(pyridin-3-yl)piperidine-1-carboxamide] was tested. Which “Myosin Activation (AC20)” value did it give?
**A.** +++ (+++ represents myosin activation value AC20 < 2 μM)

**Q.** For `CC(C)(C1CCN(C(=O)Nc2cncc(F)c2)CC1)S(=O)(=O)c1cccc(F)c1` [Compound 119, 4-(2-((3-fluorophenyl)sulfonyl)propan-2-yl)-N-(5-fluoropyridin-3-yl)piperidine-1-carboxamide], which “Myosin Activation (AC20)” value is on record?
**A.** ++ (++ represents myosin activation value AC20 from 2 μM-5 μM)

**Q.** Which “Myosin Activation (AC20)” value does the source give for `Cn1cc(S(=O)(=O)C(C)(C)C2CCN(C(=O)Nc3ccnnc3)CC2)c(C(F)(F)F)n1` [Compound 120, 4-(2-((1-methyl-3-(trifluoromethyl)-1H-pyrazol-4-yl)sulfonyl)propan-2-yl)-N-(pyridazin-4-yl)piperidine-1-carboxamide] here?
**A.** ++ (++ represents myosin activation value AC20 from 2 μM-5 μM)

**Q.** For `Cc1ccc(NC(=O)N2CCC(C(C)(C)S(=O)(=O)c3cccc(F)c3)CC2)nn1` [Compound 121, 4-(2-((3-fluorophenyl)sulfonyl)propan-2-yl)-N-(6-methylpyridazin-3-yl)piperidine-1-carboxamide], which “Myosin Activation (AC20)” value is on record?
**A.** + (+ represents myosin activation value AC20 > 5 μM)

**Q.** With `Cn1nc(C(F)F)cc1S(=O)(=O)C(C)(C)C1CCN(C(=O)Nc2ccnnc2)CC1` [Compound 122, 4-(2-((3-(difluoromethyl)-1-methyl-1H-pyrazol-5-yl)sulfonyl)propan-2-yl)-N-(pyridazin-4-yl)piperidine-1-carboxamide] as the compound, how does the “Myosin Activation (AC20)” value read?
**A.** +++ (+++ represents myosin activation value AC20 < 2 μM)

**Q.** How did the “Myosin Activation (AC20)” value turn out when `Cn1nc(C(F)(F)F)cc1S(=O)(=O)C(C)(C)C1CCN(C(=O)Nc2ccc(F)nc2)CC1` [Compound 123, N-(6-fluoropyridin-3-yl)-4-(2-((1-methyl-3-(trifluoromethyl)-1H-pyrazol-5-yl)sulfonyl)propan-2-yl)piperidine-1-carboxamide] was run?
**A.** ++ (++ represents myosin activation value AC20 from 2 μM-5 μM)

**Q.** Which “Myosin Activation (AC20)” value does the source give for `Cn1nccc1S(=O)(=O)C(C)(C)C1CCN(C(=O)Nc2ccc(F)nc2)CC1` [Compound 124, N-(6-fluoropyridin-3-yl)-4-(2-((1-methyl-1H-pyrazol-5-yl)sulfonyl)propan-2-yl)piperidine-1-carboxamide] here?
**A.** + (+ represents myosin activation value AC20 > 5 μM)

**Q.** For `Cc1cnc(NC(=O)N2CCC(C(C)(C)S(=O)(=O)c3cccc(F)c3)CC2)cn1` [Compound 125, 4-(2-((3-fluorophenyl)sulfonyl)propan-2-yl)-N-(5-methylpyrazin-2-yl)piperidine-1-carboxamide], which “Myosin Activation (AC20)” value is on record?
**A.** + (+ represents myosin activation value AC20 > 5 μM)

**Q.** For `Cn1nc(C(F)(F)F)cc1S(=O)(=O)C(C)(C)C1CCN(C(=O)Nc2ccon2)CC1` [Compound 126, N-(isoxazol-3-yl)-4-(2-((1-methyl-3-(trifluoromethyl)-1H-pyrazol-5-yl)sulfonyl)propan-2-yl)piperidine-1-carboxamide], which “Myosin Activation (AC20)” value is on record?
**A.** ++ (++ represents myosin activation value AC20 from 2 μM-5 μM)

**Q.** Which “Myosin Activation (AC20)” value does the source give for `Cn1nc(C(F)(F)F)cc1S(=O)(=O)C(C)(C)C1CCN(C(=O)Nc2ccnc(F)c2)CC1` [Compound 127, N-(2-fluoropyridin-4-yl)-4-(2-((1-methyl-3-(trifluoromethyl)-1H-pyrazol-5-yl)sulfonyl)propan-2-yl)piperidine-1-carboxamide] here?
**A.** ++ (++ represents myosin activation value AC20 from 2 μM-5 μM)

**Q.** `Cn1nccc1S(=O)(=O)C(C)(C)C1CCN(C(=O)Nc2ccon2)CC1` [Compound 128, N-(isoxazol-3-yl)-4-(2-((1-methyl-1H-pyrazol-5-yl)sulfonyl)propan-2-yl)piperidine-1-carboxamide] was tested. Which “Myosin Activation (AC20)” value did it give?
**A.** ++ (++ represents myosin activation value AC20 from 2 μM-5 μM)

**Q.** `Cc1ccc(NC(=O)N2CCC(C(C)(C)S(=O)(=O)c3cc(C(F)(F)F)nn3C)CC2)cn1` [Compound 130, 4-(2-((1-methyl-3-(trifluoromethyl)-1H-pyrazol-5-yl)sulfonyl)propan-2-yl)-N-(6-methylpyridin-3-yl)piperidine-1-carboxamide] was tested. Which “Myosin Activation (AC20)” value did it give?
**A.** ++ (++ represents myosin activation value AC20 from 2 μM-5 μM)

**Q.** How did the “Myosin Activation (AC20)” value turn out when `CC(C)(C1CCN(C(=O)Nc2cnccn2)CC1)S(=O)(=O)c1cccc(F)c1` [Compound 131, 4-(2-((3-fluorophenyl)sulfonyl)propan-2-yl)-N-(pyrazin-2-yl)piperidine-1-carboxamide] was run?
**A.** + (+ represents myosin activation value AC20 > 5 μM)

**Q.** With `CC(C)(C1CCN(C(=O)Nc2cncnc2)CC1)S(=O)(=O)c1cccc(F)c1` [Compound 132, 4-(2-((3-fluorophenyl)sulfonyl)propan-2-yl)-N-(pyrimidin-5-yl)piperidine-1-carboxamide] as the compound, how does the “Myosin Activation (AC20)” value read?
**A.** + (+ represents myosin activation value AC20 > 5 μM)

**Q.** For `CC(C)(C1CCN(C(=O)Nc2cccnc2)CC1)S(=O)(=O)c1cccc(F)c1` [Compound 133, 4-(2-((3-fluorophenyl)sulfonyl)propan-2-yl)-N-(pyridin-3-yl)piperidine-1-carboxamide], which “Myosin Activation (AC20)” value is on record?
**A.** ++ (++ represents myosin activation value AC20 from 2 μM-5 μM)

**Q.** For `Cn1nccc1S(=O)(=O)C(C)(C)C1CCN(C(=O)Nc2ccnc(F)c2)CC1` [Compound 134, N-(2-fluoropyridin-4-yl)-4-(2-((1-methyl-1H-pyrazol-5-yl)sulfonyl)propan-2-yl)piperidine-1-carboxamide], which “Myosin Activation (AC20)” value is on record?
**A.** ++ (++ represents myosin activation value AC20 from 2 μM-5 μM)

**Q.** Which “Myosin Activation (AC20)” value does the source give for `Cc1ccc(NC(=O)N2CCC(C(C)(C)S(=O)(=O)c3ccnn3C)CC2)cn1` [Compound 135, 4-(2-((1-methyl-1H-pyrazol-5-yl)sulfonyl)propan-2-yl)-N-(6-methylpyridin-3-yl)piperidine-1-carboxamide] here?
**A.** + (+ represents myosin activation value AC20 > 5 μM)

**Q.** With `Cn1nccc1NC(=O)N1CCC(C(C)(C)S(=O)(=O)c2cccc(F)c2)CC1` [Compound 136, 4-(2-((3-fluorophenyl)sulfonyl)propan-2-yl)-N-(1-methyl-1H-pyrazol-5-yl)piperidine-1-carboxamide] as the compound, how does the “Myosin Activation (AC20)” value read?
**A.** + (+ represents myosin activation value AC20 > 5 μM)

**Q.** How did the “Myosin Activation (AC20)” value turn out when `Cn1nc(C(F)(F)F)cc1S(=O)(=O)C(C)(C)C1CCN(C(=O)Nc2ccnnc2)CC1` [Compound 137, 4-(2-((1-methyl-3-(trifluoromethyl)-1H-pyrazol-5-yl)sulfonyl)propan-2-yl)-N-(pyridazin-4-yl)piperidine-1-carboxamide] was run?
**A.** +++ (+++ represents myosin activation value AC20 < 2 μM)

**Q.** For `Cn1ccc(NC(=O)N2CCC(C(C)(C)S(=O)(=O)c3cccc(F)c3)CC2)n1` [Compound 138, 4-(2-((3-fluorophenyl)sulfonyl)propan-2-yl)-N-(1-methyl-1H-pyrazol-3-yl)piperidine-1-carboxamide], which “Myosin Activation (AC20)” value is on record?
**A.** + (+ represents myosin activation value AC20 > 5 μM)

**Q.** `Cn1cc(NC(=O)N2CCC(C(C)(C)S(=O)(=O)c3cccc(F)c3)CC2)cn1` [Compound 139, 4-(2-((3-fluorophenyl)sulfonyl)propan-2-yl)-N-(1-methyl-1H-pyrazol-4-yl)piperidine-1-carboxamide] was tested. Which “Myosin Activation (AC20)” value did it give?
**A.** + (+ represents myosin activation value AC20 > 5 μM)

**Q.** For `Cn1nc(Cl)cc1S(=O)(=O)C(C)(C)C1CCN(C(=O)Nc2ccnnc2)CC1` [Compound 140, 4-(2-((3-chloro-1-methyl-1H-pyrazol-5-yl)sulfonyl)propan-2-yl)-N-(pyridazin-4-yl)piperidine-1-carboxamide], which “Myosin Activation (AC20)” value is on record?
**A.** +++ (+++ represents myosin activation value AC20 < 2 μM)

**Q.** With `Cc1ncc(NC(=O)N2CCC(C(C)(C)S(=O)(=O)c3cccc(F)c3)CC2)cn1` [Compound 141, 4-(2-((3-fluorophenyl)sulfonyl)propan-2-yl)-N-(2-methylpyrimidin-5-yl)piperidine-1-carboxamide] as the compound, how does the “Myosin Activation (AC20)” value read?
**A.** + (+ represents myosin activation value AC20 > 5 μM)

**Q.** With `Cc1cc(NC(=O)N2CCC(C(C)(C)S(=O)(=O)c3cccc(F)c3)CC2)no1` [Compound 142, 4-(2-((3-fluorophenyl)sulfonyl)propan-2-yl)-N-(5-methylisoxazol-3-yl)piperidine-1-carboxamide] as the compound, how does the “Myosin Activation (AC20)” value read?
**A.** + (+ represents myosin activation value AC20 > 5 μM)

**Q.** How did the “Myosin Activation (AC20)” value turn out when `Cc1ncc(NC(=O)N2CCC(C(C)(C)S(=O)(=O)c3cn(C)nc3C(F)F)CC2)cn1` [Compound 143, 4-(2-((3-(difluoromethyl)-1-methyl-1H-pyrazol-4-yl)sulfonyl)propan-2-yl)-N-(2-methylpyrimidin-5-yl)piperidine-1-carboxamide] was run?
**A.** + (+ represents myosin activation value AC20 > 5 μM)

**Q.** `Cc1cc(NC(=O)N2CCC(C(C)(C)S(=O)(=O)c3cn(C)nc3C(F)F)CC2)no1` [Compound 144, 4-(2-((3-(difluoromethyl)-1-methyl-1H-pyrazol-4-yl)sulfonyl)propan-2-yl)-N-(5-methylisoxazol-3-yl)piperidine-1-carboxamide] was tested. Which “Myosin Activation (AC20)” value did it give?
**A.** + (+ represents myosin activation value AC20 > 5 μM)

— patent US11123337B2, “4-methylsulfonyl-substituted piperidine urea compounds” (MYOKARDIA, INC., priority 2015, dated 2021)
